Source: PMC3486420, “In Vitro and In Vivo Characterizations of Chiglitazar, a Newly Identified PPAR Pan-Agonist” (PPAR Research, 2012)

Columns and labels:
PPARα = target: T1, PPARα (Homo sapiens, UniProt Q07869); experiment: PPARα transactivation reporter gene assay in SMMC-7721 cells; assay type: cell-based
T1 sequence (Q07869 1-468): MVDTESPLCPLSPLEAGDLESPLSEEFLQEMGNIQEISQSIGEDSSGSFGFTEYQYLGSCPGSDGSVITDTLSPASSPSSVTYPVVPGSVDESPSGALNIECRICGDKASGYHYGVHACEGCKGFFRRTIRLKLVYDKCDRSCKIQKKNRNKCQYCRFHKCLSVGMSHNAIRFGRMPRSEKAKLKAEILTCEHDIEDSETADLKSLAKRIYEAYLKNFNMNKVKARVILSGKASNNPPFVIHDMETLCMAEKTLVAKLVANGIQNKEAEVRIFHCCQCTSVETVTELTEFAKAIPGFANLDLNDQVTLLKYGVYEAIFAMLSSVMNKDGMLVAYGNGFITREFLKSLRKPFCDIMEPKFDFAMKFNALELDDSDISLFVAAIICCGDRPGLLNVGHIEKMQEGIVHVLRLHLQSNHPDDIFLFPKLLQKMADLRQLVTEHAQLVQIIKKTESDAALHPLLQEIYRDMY
T1 sequence (P19793 1-462 partner): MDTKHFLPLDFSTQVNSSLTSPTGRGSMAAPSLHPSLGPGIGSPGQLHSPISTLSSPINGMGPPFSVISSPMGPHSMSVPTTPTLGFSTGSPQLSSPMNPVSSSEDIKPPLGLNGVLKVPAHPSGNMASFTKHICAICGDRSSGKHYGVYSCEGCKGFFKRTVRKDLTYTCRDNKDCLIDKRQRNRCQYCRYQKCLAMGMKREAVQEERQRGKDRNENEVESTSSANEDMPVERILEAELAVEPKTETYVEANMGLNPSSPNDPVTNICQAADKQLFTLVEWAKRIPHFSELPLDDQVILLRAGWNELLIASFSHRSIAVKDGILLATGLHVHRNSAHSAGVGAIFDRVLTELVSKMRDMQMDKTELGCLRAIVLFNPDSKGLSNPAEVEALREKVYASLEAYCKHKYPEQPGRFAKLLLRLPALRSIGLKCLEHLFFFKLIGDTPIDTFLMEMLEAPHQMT

KKAy mice = experiment: Oral treatment of diabetic KKAy mice (glucose, body weight); assay type: in vivo, mouse
Description: Male db/db mice (BKS.Cg-m +/+ LEPR^db) in 6-7 weeks were purchased from The Jackson Laboratory (Bar Harbor, ME, USA). Male KKAy and C57BL/6J mice in 8–10 weeks were obtained from the Institute of Animal Science, Chinese Academy of Medical Sciences and Peking Union Medical College (Beijing, China). Animals were randomly sorted into different treatment groups (8–10 per group). […] Plasma glucose levels were examined at various time points by Accu-Chek Advantage II Glucose Strips (Roche Diagnostics, Basel, Switzerland) and measured by Accu-Chek Advantage (Roche Diagnostics). Animals were sacrificed 24 h after the last dosing and abdominal fat pad, liver, and skeletal muscle from KKAy mice and abdominal fat pad from db/db mice were taken for gene expression analysis.
Figure 2 In vivo effects on blood glucose control and insulin sensitization of chiglitazar. […] Plasma glucose (a and b) and insulin (c) levels were measured at the indicated time points. […] Data are expressed as mean ± SE.
Figure 4 Influence in body and abdominal fat pad weights of chiglitazar. […] Changes in body weight were evaluated at the indicated days (b), and the fat pads were weighed from the scarified animals at day 15 (c). ^# P < 0.05 compared with day 0, and *P < 0.05 compared with Ctrl. n = 8 per group for KKAy, and n = 10 per group for db/db. Data are expressed as mean ± SE.

PPARγ [1] = target: T2, PPARγ (Homo sapiens, UniProt P37231); experiment: PPARγ transactivation reporter gene assay in SMMC-7721 cells; assay type: cell-based; conditions: SMMC-7721 cells
T2 construct: expressed in transfected cells; host or cells: SMMC-7721 or U2OS
T2 sequence (P37231 1-505): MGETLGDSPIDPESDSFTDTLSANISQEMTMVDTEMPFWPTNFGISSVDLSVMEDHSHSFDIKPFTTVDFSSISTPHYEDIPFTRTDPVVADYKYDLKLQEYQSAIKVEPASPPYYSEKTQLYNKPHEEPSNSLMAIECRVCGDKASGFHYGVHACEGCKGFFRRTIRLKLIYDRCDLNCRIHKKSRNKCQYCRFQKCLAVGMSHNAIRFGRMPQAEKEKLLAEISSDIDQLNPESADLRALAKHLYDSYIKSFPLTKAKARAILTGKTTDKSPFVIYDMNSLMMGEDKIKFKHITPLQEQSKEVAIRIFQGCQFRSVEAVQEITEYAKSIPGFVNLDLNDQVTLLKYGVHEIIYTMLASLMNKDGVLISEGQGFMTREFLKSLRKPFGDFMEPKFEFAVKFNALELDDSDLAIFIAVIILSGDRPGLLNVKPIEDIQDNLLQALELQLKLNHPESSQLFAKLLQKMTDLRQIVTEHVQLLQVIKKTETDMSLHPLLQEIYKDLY
T2 sequence (P19793 1-462 partner): T1 sequence (P19793 1-462 partner)

PPARγ [2] = target: T2, PPARγ; experiment: PPARγ transactivation reporter gene assay in U2OS cells; assay type: cell-based
[3] = 24 h treatment, luciferase reporter, hRXR cotransfected, ia: inactive at 10 μM
[4] = max response compared with Ros at 1 μM

With O=C(c1ccc(F)cc1)c1ccccc1NC(Cc1ccc(OCCn2c3ccccc3c3ccccc32)cc1)C(=O)O (centres unmarked) [Chi, 2-[(2-(4-fluorobenzoyl)phenyl)amino]-3-[4-(2-carbazolylethoxy)-phenyl]-propionic acid] the EC50 (PPARα; [3]) was 1100 ± 300 nM, the “PPARα % Max” value (PPARα; max response compared with WY at 50 μM) was 142% and the Body weight (KKAy mice; 5 and 20 mg kg^−1 oral daily, 12 days, in comparison with rosiglitazone 5 mg kg^−1) was “did not increase”. The “BG (blood glucose) levels” value (KKAy mice; oral daily, 5 to 20 mg kg^−1, 12 days) was “significantly lowered”, the EC50 (PPARγ [1]; 24 h treatment, luciferase reporter, hRXR cotransfected, ia: inactive at 10 μM, read-out: PPARγ EC50) was 90 ± 20 nM and the “PPARγ % Max” value (PPARγ [1]; [4]) was 105%. For the same molecule, the EC50 (PPARγ [2]; [3]) was 80 ± 20 nM and the “PPARγ % Max” value (PPARγ [2]; [4]) was 117%.
